The results in this text go back to patent publication US20050107456A1, “Substituted pyrazolines for use as pesticides” (priority 2002, published 2005).

Read-outs that look alike come from different tables or passages of the source.

The subject of data set [1] is larvae of the mustard beetle (Phaedon cochleariae). The data set is described as follows: Phaedon larvae test. The format is in vivo. The following applies: active compound concentration 500 ppm, after 7 days, dipped cabbage leaves. The protocol: (§1) Phaedon Larvae Test Solvent: 7 parts by weight of dimethylformamide Emulsifier: 2 parts by weight of alkylaryl polyglycol ether To produce a suitable preparation of active compound, 1 part by weight of active compound is mixed with the stated amounts of solvent and emulsifier, and the concentrate is diluted with emulsifier-containing water to the desired concentration. Cabbage leaves (Brassica oleracea) are treated by being dipped into the preparation of active compound of the desired concentration and are populated with larvae of the mustard beetle (Phaedon cochleariae) while the leaves are still moist. After the desired period of time, the kill in % is determined. 100% means that all beetle larvae have been killed; 0% means that none of the beetle larvae have been killed.

Data set [2] can be described thus: logP determination by HPLC on a reversed-phase column (EEC Directive 79/831 Annex V.A8). The format is physicochemical. The following applies: for chromatographic logP: read-out: logP (pH2). The protocol: The logP values given in the Preparation Examples and the tables above are determined in accordance with EEC Directive 79/831 Annex V.A8 by HPLC (High Performance Liquid Chromatography) on a reversed-phase column (C 18). Temperature: 43° C.
The determination is carried out in the acidic range at pH 2.3 using the mobile phases 0.1% aqueous phosphoric acid and acetonitrile; linear gradient from 10% acetonitrile to 90% acetonitrile.
Calibration is carried out using unbranched alkan-2-ones (having 3 to 16 carbon atoms) with known logP values (determination of the logP values by the retention times using linear interpolation between two successive alkanones).

The test system of data set [3] is caterpillars of the army worm (Spodoptera frugiperda). The data set is described as follows: Spodoptera frugiperda test. It is filed as in vivo. The note with it: active compound concentration 500 ppm, after 7 days, dipped cabbage leaves. On the procedure:
as §1, with “Spodoptera Frugiperda” for “Phaedon Larvae”, “caterpillars” for “larvae”, “army worm (Spodoptera frugiperda)” for “mustard beetle (Phaedon cochleariae)”, “caterpillars” for “beetle larvae”

[4] abbreviates: reversed-phase C18 HPLC column, HPLC, reversed-phase C 18, 43° C., acidic range pH 2.3, 0.1% aqueous phosphoric acid/acetonitrile.
[5] abbreviates: HPLC, reversed-phase C 18, 43° C., acidic range pH 2.3, 0.1% aqueous phosphoric acid/acetonitrile.

As for `CC(C)(C)n1nnc(-c2ccc(NC(=O)N3CC(n4cc(C#N)cn4)C(c4ccc(Cl)cc4)=N3)cc2)n1` (stereo not drawn) [Compound 4, N-[4-(2-tert-butyltetrazol-5-yl)phenyl]-3-(4-chlorophenyl)-4-(4-cyanopyrazol-1-yl)-4,5-dihydro-1-pyrazolecarboxamide], the kill in % in data set [1] and in data set [3] was 100% each time. Besides, in data set [2] (setting [4]), the chromatographic logP is 3.91. As to `CC(C)(C)n1nnc(-c2ccc(N)cc2)n1` [4-(2-tert-butyltetrazol-5-yl)aniline], the chromatographic logP in data set [2] (setting [4]) was 1.69. Take `N#Cc1cnn(CC(=O)c2ccc(Cl)cc2)c1` [2-(4-cyanopyrazol-1-yl)-4′-chloroacetophenone]: the chromatographic logP in data set [2] (setting [5]) was 2.2. `CC(C)(C)c1nnn(-c2ccc(NC(=O)N3CC(n4cc(C#N)cn4)C(c4ccc(Cl)cc4)=N3)cc2)n1` (stereo not drawn) [Compound 5, N-[4-(5-tert-butyltetrazol-2-yl)phenyl]-3-(4-chlorophenyl)-4-(4-cyanopyrazol-1-yl)-4,5-dihydro-1-pyrazolecarboxamide]: the chromatographic logP in data set [2] (setting [4]) amounted to 4.27.

For the compound `CC(C)(C)c1nc(-c2ccc(N)cc2)no1` [4-(5-tert-butyl[1,2,4]oxadiazol-3-yl)aniline], the chromatographic logP in data set [2] (setting [4]) came to 2.31. With `CC(C)(C)c1noc(-c2ccc(NC(=O)N3CC(n4cc(C#N)cn4)C(c4ccc(Cl)cc4)=N3)cc2)n1` (stereo not drawn) [Compound 3, N-[4-(3-tert-butyl[1,2,4]oxadiazol-5-yl)-phenyl]-3-(4-chlorophenyl)-4-(4-cyanopyrazol-1-yl)-4,5-dihydro-1-pyrazolecarbox-amide], in data set [2] (pH 2.3), the “logP (pH2)” value stood at 4.38. In data set [3], the kill in % is on record as 100%. `CC(C)(C)c1noc(-c2ccc(N)cc2)n1` [4-(3-tert-butyl[1,2,4]oxadiazol-5-yl)aniline]: the chromatographic logP in data set [2] (setting [4]) stood at 2.54. In the case of `N#Cc1cnn(C2CN(C(=O)Nc3ccc(-c4ccccc4)cc3)N=C2c2ccc(Cl)cc2)c1` (stereo not drawn) [Compound 1, N-(4-phenyl)-3-(4-chlorophenyl)-4-(4-cyanopyrazol-1-yl)-4,5-dihydro-1-pyrazolecarboxanilide], in data set [2] (setting [4]), the chromatographic logP was 4.11. The kill in % in data set [3] was determined as 100%. As for `N#Cc1cnn(C2CNN=C2c2ccc(Cl)cc2)c1` (stereo not drawn) [3-(4-chlorophenyl)-4-(4-cyanopyrazol-1-yl)-4,5-dihydro-1H-pyrazole], in data set [2] (setting [4]), the chromatographic logP was found to be 2.11.

`CC(C)(C)c1nc(-c2ccc(NC(=O)N3CC(n4cc(C#N)cn4)C(c4ccc(Cl)cc4)=N3)cc2)no1` (stereo not drawn) [Compound 2, N-[4-(5-tert-butyl[1.2.4]oxadiazol-3-yl)-phenyl]-3-(4-chlorophenyl)-4-(4-cyanopyrazol-1-yl)-4,5-dihydro-1-pyrazolecarboxamide]: the kill in % in data set [1] and in data set [3] was 100% throughout. In addition, the “logP (pH2)” value in data set [2] (pH 2.3) stood at 4.33.

Regarding `CC(C)(C)c1nnn(-c2ccc(N)cc2)n1` [4-(5-tert-butyltetrazol-2-yl)aniline], the chromatographic logP in data set [2] (setting [4]) was found to be 2.27. Take “4-(5-tert-butyltetrazol-2-yl)nitrobenzene”: in data set [2] (setting [5]), the “logP (pH2)” value was found to be 2.20.
